# System: brain
# Test: Matured TTM-001 and TTM-002 variants, NGS enrichment in mouse brain
# Type: in vivo, mice
# Settings: NGS fold-enrichment, mouse brain, relative to AAV9 control
row,Sequence,"Fold Enrichment relative to AAV9, Brain (Mouse) [fold]"
1,KAINGHDSPHKSEKNQQT,26.868
2,KTSNGYDSPHKSGQKQQT,8.813

# Same assay, conditions: mouse brain; relative to AAV9 control
row,Sequence,"Fold Enrichment relative to AAV9, Brain (Mouse) [fold]"
1,KTINGSGSPHSKAQGAIT,95.696
2,KTEGLSGSPHSKAQNQQT,104.529
3,KTINGSGSPHSKALMRQT,81.332
4,KEFVGSGSPHSKAQNQQT,128.675
5,KTINGGGSPHSKAQYQHT,82.256
6,KTIIGGGSPHSKAQNPQT,53.992

# System: brains, heart, liver, muscle, and DRG of the NHPs
# Test: Maturation of TTM-001 and TTM-002 capsids, NGS enrichment in NHP tissues
# Type: in vivo
# Settings: NGS fold-enrichment of RNA, NHP brain, relative to AAV9 control
# Procedure, shortened: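 Variants carry mutations within and flanking the loop IV peptide insert: positions 450–466 were triplet-randomized, while positions 449–466 received low-frequency point mutations. The combined pool went into two NHPs, and each peptide was scored by NGS enrichment ratio against AAV9.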
row,Sequence,"Fold Enrichment relative to AAV9, Brain (NHP) [fold]"
1,KAINGHDSPHKSEKNQQT,77.103
2,KTSNGYDSPHKSGQKQQT,77.001

# Same assay, conditions: NGS fold-enrichment of matured AAV capsid variants; NHP brain, RNA; relative to AAV9 control
row,Sequence,"Fold Enrichment relative to AAV9, Brain (NHP) [fold]"
1,KTINGSGSPHSKAQGAIT,57.627
2,KTEGLSGSPHSKAQNQQT,52.891
3,KTINGSGSPHSKALMRQT,57.234
4,KEFVGSGSPHSKAQNQQT,58.374
5,KTINGGGSPHSKAQYQHT,54.188
6,KTIIGGGSPHSKAQNPQT,58.924

# Same assay, conditions: NGS fold-enrichment, NHP DRG, relative to AAV9 control
row,Sequence,"Fold Enrichment relative to AAV9, DRG (NHP) [fold]"
1,KAINGHDSPHKSEKNQQT,0.000
2,KTSNGYDSPHKSGQKQQT,0.032

# Same assay, conditions: NGS fold-enrichment, NHP heart, relative to AAV9 control
row,Sequence,"Fold Enrichment relative to AAV9, Heart (NHP) [fold]"
1,KAINGHDSPHKSEKNQQT,0.274
2,KTSNGYDSPHKSGQKQQT,0.286

# Same assay, conditions: NGS fold-enrichment, NHP liver DNA, relative to AAV9 control
row,Sequence,"Fold Enrichment relative to AAV9, Liver DNA (NHP) [fold]"
1,KAINGHDSPHKSEKNQQT,0.000
2,KTSNGYDSPHKSGQKQQT,0.016

# Same assay, conditions: NGS fold-enrichment, NHP liver RNA, relative to AAV9 control
row,Sequence,"Fold Enrichment relative to AAV9, Liver RNA (NHP) [fold]"
1,KAINGHDSPHKSEKNQQT,0.000
2,KTSNGYDSPHKSGQKQQT,0.000

# Same assay, conditions: NGS fold-enrichment, NHP muscle, relative to AAV9 control
row,Sequence,"Fold Enrichment relative to AAV9, Muscle (NHP) [fold]"
1,KAINGHDSPHKSEKNQQT,0.000
2,KTSNGYDSPHKSGQKQQT,0.000

# Same assay, conditions: NHP DRG; relative to AAV9 control
row,Sequence,"Fold Enrichment relative to AAV9, DRG (NHP) [fold]"
1,KTINGSGSPHSKAQGAIT,0.000
2,KTEGLSGSPHSKAQNQQT,0.000
3,KTINGSGSPHSKALMRQT,0.060
4,KEFVGSGSPHSKAQNQQT,0.000
5,KTINGGGSPHSKAQYQHT,0.000
6,KTIIGGGSPHSKAQNPQT,0.000

# Same assay, conditions: NHP heart; relative to AAV9 control
row,Sequence,"Fold Enrichment relative to AAV9, Heart (NHP) [fold]"
1,KTINGSGSPHSKAQGAIT,0.000
2,KTEGLSGSPHSKAQNQQT,0.000
3,KTINGSGSPHSKALMRQT,0.036
4,KEFVGSGSPHSKAQNQQT,0.046
5,KTINGGGSPHSKAQYQHT,0.000
6,KTIIGGGSPHSKAQNPQT,0.202

# Same assay, conditions: NHP liver, DNA; relative to AAV9 control
row,Sequence,"Fold Enrichment relative to AAV9, Liver DNA (NHP) [fold]"
1,KTINGSGSPHSKAQGAIT,0.161
2,KTEGLSGSPHSKAQNQQT,0.155
3,KTINGSGSPHSKALMRQT,0.517
4,KEFVGSGSPHSKAQNQQT,0.326
5,KTINGGGSPHSKAQYQHT,0.223
6,KTIIGGGSPHSKAQNPQT,0.126

# Same assay, conditions: NHP liver, RNA; relative to AAV9 control
row,Sequence,"Fold Enrichment relative to AAV9, Liver RNA (NHP) [fold]"
1,KTINGSGSPHSKAQGAIT,0.594
2,KTEGLSGSPHSKAQNQQT,0.104
3,KTINGSGSPHSKALMRQT,1.798
4,KEFVGSGSPHSKAQNQQT,0.088
5,KTINGGGSPHSKAQYQHT,0.000
6,KTIIGGGSPHSKAQNPQT,0.000

# Same assay, conditions: NHP muscle; relative to AAV9 control
row,Sequence,"Fold Enrichment relative to AAV9, Muscle (NHP) [fold]"
1,KTINGSGSPHSKAQGAIT,0.000
2,KTEGLSGSPHSKAQNQQT,0.020
3,KTINGSGSPHSKALMRQT,0.100
4,KEFVGSGSPHSKAQNQQT,0.000
5,KTINGGGSPHSKAQYQHT,0.000
6,KTIIGGGSPHSKAQNPQT,0.000

# Reference: US20260250318A1, “COMPOSITIONS AND METHODS FOR CROSSING THE BLOOD BRAIN BARRIER” (VOYAGER THERAPEUTICS, INC., priority 2022, published 2026)
